Experimental data from PubChem BioAssay (NCI).
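96-well plates; 48 h exposure; 5 concentrations. Endpoints by linear interpolation between flanking doses. Not reached: highest tested concentration assigned. The concentration for full growth arrest is given as TGI.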

Columns and labels:
Experiment in all cases: DTP human tumour cell line panel, 48 h
786-0 renal = tested on: 786-0 renal
A498 renal = tested on: A498 renal
A549 NSCLC = tested on: A549 NSCLC
ACHN renal = tested on: ACHN renal
BT-549 breast = tested on: BT-549 breast
CAKI-1 renal = tested on: CAKI-1 renal
CCRF-CEM leukemia = tested on: CCRF-CEM leukemia
COLO 205 colon = tested on: COLO 205 colon
DU-145 prostate = tested on: DU-145 prostate
EKVX NSCLC = tested on: EKVX NSCLC
HCC-2998 colon = tested on: HCC-2998 colon
HCT-15 colon = tested on: HCT-15 colon
HL-60(TB) leukemia = tested on: HL-60(TB) leukemia
HOP-62 NSCLC = tested on: HOP-62 NSCLC
HOP-92 NSCLC = tested on: HOP-92 NSCLC
HS 578T breast = tested on: HS 578T breast
HT29 colon = tested on: HT29 colon
IGROV1 ovarian = tested on: IGROV1 ovarian
K-562 leukemia = tested on: K-562 leukemia
KM12 colon = tested on: KM12 colon
LOX IMVI melanoma = tested on: LOX IMVI melanoma
M14 melanoma = tested on: M14 melanoma
MALME-3M melanoma = tested on: MALME-3M melanoma
MCF7 breast = tested on: MCF7 breast
MDA-MB-231 breast = tested on: MDA-MB-231 breast
MDA-MB-435 = tested on: MDA-MB-435
MDA-N = tested on: MDA-N
MOLT-4 leukemia = tested on: MOLT-4 leukemia
NCI-H226 lung = tested on: NCI-H226 lung
NCI-H23 lung = tested on: NCI-H23 lung
NCI-H460 lung = tested on: NCI-H460 lung
NCI-H522 lung = tested on: NCI-H522 lung
NCI/ADR-RES ovarian = tested on: NCI/ADR-RES ovarian
OVCAR-3 ovarian = tested on: OVCAR-3 ovarian
OVCAR-4 ovarian = tested on: OVCAR-4 ovarian
OVCAR-5 ovarian = tested on: OVCAR-5 ovarian
OVCAR-8 ovarian = tested on: OVCAR-8 ovarian
PC-3 prostate = tested on: PC-3 prostate
RPMI-8226 leukemia = tested on: RPMI-8226 leukemia
RXF 393 renal = tested on: RXF 393 renal
SF-268 CNS = tested on: SF-268 CNS
SF-295 CNS = tested on: SF-295 CNS
SF-539 CNS = tested on: SF-539 CNS
SK-MEL-2 melanoma = tested on: SK-MEL-2 melanoma
SK-MEL-28 melanoma = tested on: SK-MEL-28 melanoma
SK-MEL-5 melanoma = tested on: SK-MEL-5 melanoma
SK-OV-3 ovarian = tested on: SK-OV-3 ovarian
SN12C renal = tested on: SN12C renal
SNB-19 CNS = tested on: SNB-19 CNS
SNB-75 CNS = tested on: SNB-75 CNS
SR leukemia = tested on: SR leukemia
SW-620 colon = tested on: SW-620 colon
T-47D breast = tested on: T-47D breast
TK-10 renal = tested on: TK-10 renal
U251 CNS = tested on: U251 CNS
UACC-257 melanoma = tested on: UACC-257 melanoma
UACC-62 melanoma = tested on: UACC-62 melanoma
UO-31 renal = tested on: UO-31 renal

Q: How did the TGI (786-0 renal) turn out when `Cc1cc(O)c2cc3c(O)c(O)ccc3cc2c1` was run?
A: > 47.8 µM

Q: What about the TGI (A498 renal) of the same molecule?
A: 16.1 µM

Q: And the TGI (A549 NSCLC)?
A: > 26.3 µM

Q: And the TGI (ACHN renal)?
A: 5.71 µM

Q: And the TGI (BT-549 breast)?
A: > 44.3 µM

Q: What about the TGI (CAKI-1 renal) of the same molecule?
A: 6.63 µM

Q: And the TGI (CCRF-CEM leukemia)?
A: 22.6 µM

Q: What about the TGI (COLO 205 colon) of the same molecule?
A: 1.46 µM

Q: What about the TGI (DU-145 prostate) of the same molecule?
A: > 50.8 µM

Q: And the TGI (EKVX NSCLC)?
A: 24.7 µM

Q: And the TGI (HCC-2998 colon)?
A: 16.4 µM

Q: And the TGI (HCT-15 colon)?
A: 5.91 µM

Q: And the TGI (HL-60(TB) leukemia)?
A: 4.16 µM

Q: And the TGI (HOP-62 NSCLC)?
A: 10.3 µM

Q: And the TGI (HOP-92 NSCLC)?
A: > 22.8 µM

Q: What about the TGI (HS 578T breast) of the same molecule?
A: 6.22 µM

Q: What about the TGI (HT29 colon) of the same molecule?
A: 8.43 µM

Q: What about the TGI (IGROV1 ovarian) of the same molecule?
A: 10.8 µM

Q: What about the TGI (K-562 leukemia) of the same molecule?
A: 3.33 µM

Q: What about the TGI (KM12 colon) of the same molecule?
A: 2.32 µM

Q: And the TGI (LOX IMVI melanoma)?
A: > 42.3 µM

Q: And the TGI (M14 melanoma)?
A: 20 µM

Q: What about the TGI (MALME-3M melanoma) of the same molecule?
A: 3.52 µM

Q: What about the TGI (MCF7 breast) of the same molecule?
A: > 87 µM

Q: What about the TGI (MDA-MB-231 breast) of the same molecule?
A: 3.21 µM

Q: What about the TGI (MDA-MB-435) of the same molecule?
A: 22.8 µM

Q: What about the TGI (MDA-N) of the same molecule?
A: 8.86 µM

Q: And the TGI (MOLT-4 leukemia)?
A: 5.75 µM

Q: What about the TGI (NCI-H226 lung) of the same molecule?
A: 5.63 µM

Q: And the TGI (NCI-H23 lung)?
A: 6 µM

Q: And the TGI (NCI-H460 lung)?
A: 3.63 µM

Q: What about the TGI (NCI-H522 lung) of the same molecule?
A: 3.98 µM

Q: And the TGI (NCI/ADR-RES ovarian)?
A: 5.89 µM

Q: What about the TGI (OVCAR-3 ovarian) of the same molecule?
A: 6.04 µM

Q: What about the TGI (OVCAR-4 ovarian) of the same molecule?
A: 5.53 µM

Q: And the TGI (OVCAR-5 ovarian)?
A: 13.5 µM

Q: And the TGI (OVCAR-8 ovarian)?
A: 11.2 µM

Q: And the TGI (PC-3 prostate)?
A: 19.3 µM

Q: What about the TGI (RPMI-8226 leukemia) of the same molecule?
A: > 100 µM

Q: What about the TGI (RXF 393 renal) of the same molecule?
A: 14.1 µM

Q: And the TGI (SF-268 CNS)?
A: 8.51 µM

Q: And the TGI (SF-295 CNS)?
A: 10.8 µM

Q: And the TGI (SF-539 CNS)?
A: 3.27 µM

Q: And the TGI (SK-MEL-2 melanoma)?
A: 3.22 µM

Q: What about the TGI (SK-MEL-28 melanoma) of the same molecule?
A: > 58.8 µM

Q: What about the TGI (SK-MEL-5 melanoma) of the same molecule?
A: 1.07 µM

Q: What about the TGI (SK-OV-3 ovarian) of the same molecule?
A: 9.82 µM

Q: What about the TGI (SN12C renal) of the same molecule?
A: 17.3 µM

Q: What about the TGI (SNB-19 CNS) of the same molecule?
A: > 100 µM

Q: What about the TGI (SNB-75 CNS) of the same molecule?
A: 8.95 µM

Q: And the TGI (SR leukemia)?
A: 3.25 µM

Q: What about the TGI (SW-620 colon) of the same molecule?
A: > 28.9 µM

Q: What about the TGI (T-47D breast) of the same molecule?
A: 6.28 µM

Q: What about the TGI (TK-10 renal) of the same molecule?
A: 33.7 µM

Q: What about the TGI (U251 CNS) of the same molecule?
A: 18.1 µM

Q: What about the TGI (UACC-257 melanoma) of the same molecule?
A: 13.5 µM

Q: What about the TGI (UACC-62 melanoma) of the same molecule?
A: 22.6 µM

Q: What about the TGI (UO-31 renal) of the same molecule?
A: 2.22 µM
